SMILES strings stand for the structures.

In one assay the target is BTK (Homo sapiens (Human), UniProt Q06187). Briefly: Z'-LYTE kinase inhibition assay against BTK. Format: biochemical. The settings on record: for inhibition at 0.1 µM: compound at 100 nM, ATP concentration at Km; for IC50: series of concentrations, GraphPad Prism 5. The method in brief:
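Compounds were titrated over 10 points (3-fold steps, 1% DMSO) against BTK (1.04-10.4 ng) using Tyr 01 substrate at 2 μM and ATP at Km, pH 7.5 HEPES buffer with MgCl2 and EGTA. After one hour each of reaction and development at room temperature, fluorescence gave percent inhibition and IC50.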

A further assay relates to OCI-Ly10 cells. Briefly: OCI-Ly10 cell proliferation assay (Alamar Blue, 72 hours). The settings on record: Homo sapiens. Format: cell-based. How it is done:
OCI-Ly10 cells were cultured in Iscove's DMEM supplemented with 20% fetal bovine serum and 1× penicillin/streptomycin/glutamine. The cells were maintained in T175 flasks under 5% CO2 in a 37 ° C. humidified incubator for 5 days prior to plating and assay.
Cells were pooled by centrifugation (200 ref, 8 minutes) and resuspended in fresh medium to a concentration of 2.00E+05 cells/ml. 200 µl of the cell suspension was added to each well (40,000 cells/well) of a black-walled 96 well plate to which 1 μl of compound (n=3 per concentration) in 100% DMSO (0.5% final concentration) was added per well. Vehicle and cell free wells were also included in the assay. The dosed cells were cultured under normal conditions for 72 hours.
Cell proliferation is measured using the dye Alamar Blue (resazurin). Resazurin is reduced to resorufin by cellular enzymes and is fluorescent (544 nm excitation, 612 nm emission). Fluorescence intensity is proportional to cell number. Resazurin was prepared in PBS to a stock concentration of 440 μM. 40 μl of the 440 μM resazurin stock solution was added 3 hours prior to the 72 hour termination of the assay. The plate was returned to normal culture conditions and fluorescence measurements were collected using a Cytation3 multimode plate reader (Biotek) at 72 hours.
The scale utilized in Table 8 is as follows: ++ less than 50 nM and + greater than 50 nM.

Sequence of BTK (Q06187 whole entry): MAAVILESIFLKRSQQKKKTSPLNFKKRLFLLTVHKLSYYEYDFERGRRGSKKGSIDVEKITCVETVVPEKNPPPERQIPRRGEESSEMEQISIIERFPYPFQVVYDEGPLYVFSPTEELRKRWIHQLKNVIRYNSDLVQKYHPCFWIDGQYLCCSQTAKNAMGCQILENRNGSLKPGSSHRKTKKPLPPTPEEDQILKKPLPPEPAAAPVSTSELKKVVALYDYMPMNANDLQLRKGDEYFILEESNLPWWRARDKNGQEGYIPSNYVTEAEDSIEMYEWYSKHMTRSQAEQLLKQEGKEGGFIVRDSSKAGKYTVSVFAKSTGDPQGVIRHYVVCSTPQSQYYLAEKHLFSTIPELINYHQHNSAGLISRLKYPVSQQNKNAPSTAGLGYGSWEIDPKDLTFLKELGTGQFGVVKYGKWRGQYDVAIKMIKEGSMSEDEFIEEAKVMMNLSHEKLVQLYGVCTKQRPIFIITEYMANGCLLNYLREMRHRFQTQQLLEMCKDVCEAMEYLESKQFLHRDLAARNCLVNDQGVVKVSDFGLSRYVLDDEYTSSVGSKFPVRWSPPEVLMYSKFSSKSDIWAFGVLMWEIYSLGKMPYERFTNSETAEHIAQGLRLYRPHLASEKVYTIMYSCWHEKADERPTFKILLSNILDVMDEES

Broadly, the inhibition is the share of the control response that was lost under treatment. By IC50 is commonly meant the concentration that inhibits the measured activity by half. The low end stands for greater potency in that assay, the high end for weaker potency in that assay. At BTK, `C=CC(=O)Nc1cccc(-c2cc(-c3cccnc3)cc3cnc(N)nc23)c1` [C035, N-(3-(2-amino-6-(pyridin-3-yl)quinazolin-8-yl)phenyl)acrylamide] registered an inhibition at 0.1 µM of more than 50% and an IC50 of less than 100 nM. Further, the IC50 in the assay with OCI-Ly10 cells was more than 50 nM.

Compound `C=CC(=O)N1CCC(c2cc(-c3ccc(C(=O)Nc4cc(F)ccn4)cc3)n3cnccc23)C1` (centres unmarked) [C065, 4-(5-(1-acryloylpyrrolidin-3-yl)pyrrolo[1,2-c]pyrimidin-7-yl)-N-(4-fluoropyridin-2-yl)benzamide] registered an inhibition at 0.1 µM at BTK of more than 50%. Besides, the IC50 against BTK was less than 100 nM; in the assay with OCI-Ly10 cells it was less than 50 nM.

The compound `C=CC(=O)Nc1cccc(-c2cc(-c3ccc(Oc4ccccn4)cc3)cc3cncnc23)c1` [C099, N-(3-(6-(4-(pyridin-2-yloxy)phenyl)quinazolin-8-yl)phenyl)acrylamide] had an inhibition at 0.1 µM at BTK of more than 50%. Besides, the IC50 against BTK was less than 100 nM; in the assay with OCI-Ly10 cells it was less than 50 nM.

At BTK, `C=CC(=O)Nc1cccc(-c2cc(-c3ccc(C(=O)N4CCCC4)cc3)cc3cncnc23)c1` [C102, N-(3-(6-(4-(pyrrolidine-1-carbonyl)phenyl)quinazolin-8-yl)phenyl)acrylamide] returned an inhibition at 0.1 µM of more than 50% and an IC50 of less than 100 nM. The compound also returned an IC50 with OCI-Ly10 cells of more than 50 nM.

As to `C=CC(=O)Nc1cccc(-c2cc(-c3ccc(Oc4ncccc4F)cc3F)cc3cncnc23)c1` [C105, N-(3-(6-(2-fluoro-4-((3-fluoropyridin-2-yl)oxy)phenyl)quinazolin-8-yl)phenyl)acrylamide], on BTK, the inhibition at 0.1 µM is more than 50% and the IC50 was less than 100 nM. Further, the IC50 with OCI-Ly10 cells is less than 50 nM.

At BTK, `C=CC(=O)Nc1cccc(-c2cc(-c3ccc(Oc4ccccn4)cc3F)cc3cncnc23)c1` [C112, N-(3-(6-(2-fluoro-4-(pyridin-2-yloxy)phenyl)quinazolin-8-yl)phenyl)acrylamide] gave an inhibition at 0.1 µM of more than 50% and an IC50 of less than 100 nM. The compound also had a half-maximal inhibitory concentration (IC50) in the assay with OCI-Ly10 cells of less than 50 nM.

On BTK, `C=CC(=O)Nc1cccc(-c2cc(-c3ccc(C(=O)Nc4cc(C5CC5)ccn4)cc3Cl)cc3cncnc23)c1` [C120, 4-(8-(3-acrylamidophenyl)quinazolin-6-yl)-3-chloro-N-(4-cyclopropylpyridin-2-yl)benzamide] registered an inhibition at 0.1 µM of more than 50% and an IC50 of less than 100 nM. The compound also came in with an IC50 in the assay with OCI-Ly10 cells of less than 50 nM.

Turning to `C=CC(=O)Nc1cccc(-c2cc(-c3ccc(Oc4ccccn4)cc3OC)cc3cncnc23)c1` [C121, N-(3-(6-(2-methoxy-4-(pyridin-2-yloxy)phenyl)quinazolin-8-yl)phenyl)acrylamide], at BTK, the inhibition at 0.1 µM is more than 50% and the concentration for half-maximal inhibition (IC50) was less than 100 nM. In the assay with OCI-Ly10 cells, this compound came in with an IC50 of more than 50 nM.

Take `C=CC(=O)Nc1cccc(-c2cc(-c3ccc(C(=O)Nc4cc(C5CC5)ccn4)cc3)cc3cncnc23)c1` [C131, 4-(8-(3-acrylamidophenyl)quinazolin-6-yl)-N-(4-cyclopropylpyridin-2-yl)benzamide]: the inhibition at 0.1 µM at BTK is more than 50%. Further, the IC50 against BTK is less than 100 nM; in the assay on OCI-Ly10 cells, less than 50 nM.

On BTK, `C=CC(=O)Nc1cccc(-c2cc(-c3ccc(Oc4ccccn4)c(F)c3)cc3cncnc23)c1` [C135, N-(3-(6-(3-fluoro-4-(pyridin-2-yloxy)phenyl)quinazolin-8-yl)phenyl)acrylamide] displayed an inhibition at 0.1 µM of more than 50% and a half-inhibitory concentration (IC50) of less than 100 nM. In the assay on OCI-Ly10 cells, this compound registered a concentration for half-maximal inhibition (IC50) of less than 50 nM.

In turn, `CC#CC(=O)N1CCC(c2nc(-c3ccc(Oc4cc(C(F)(F)F)ccn4)c(OC)c3)n3c(N)nccc23)C1` (centres unmarked) [C222, 1-(3-(5-amino-3-(3-methoxy-4-((4-(trifluoro-methyl)pyridin-2-yl)oxy)phenyl)imidazo[1,5-c]pyrimidin-1-yl)pyrrolidin-1-yl)but-2-yn-1-one] gave an inhibition at 0.1 µM on BTK of more than 50%.

On BTK, `C=CC(=O)N1CCC(c2nc(-c3ccc(Oc4ncccc4C(F)(F)F)c(F)c3)n3c(N)nccc23)C1` (centres unmarked) [C223, 1-(3-(5-amino-3-(3-fluoro-4-((3-(trifluoro-methyl)pyridin-2-yl)oxy)phenyl)imidazo[1,5-c]pyrimidin-1-yl)pyrrolidin-1-yl)prop-2-en-1-one] had an inhibition at 0.1 µM of more than 50%.

As for `C=CC(=O)N1CCC(c2nc(-c3ccc(Oc4ncccc4F)cc3)n3c(N)nccc23)C1` (centres unmarked) [C226, 1-(3-(5-amino-3-(4-((3-fluoropyridin-2-yl)oxy)phenyl)imidazo[1,5-c]pyrimidin-1-yl)pyrrolidin-1-yl)prop-2-en-1-one], the inhibition at 0.1 µM against BTK was more than 50%.

The compound `C=CC(=O)N1CCC(c2nc(-c3ccc(Oc4ncccc4C#N)cc3)n3c(N)nccc23)C1` (centres unmarked) [C227, 2-(4-(1-(1-acryloylpyrrolidin-3-yl)-5-amino-imidazo[1,5-c]pyrimidin-3-yl)phenoxy)nicotinonitrile] came in with an inhibition at 0.1 µM against BTK of more than 50%.

On to `CC#CC(=O)N1CCC(c2nc(-c3ccc(Oc4ncccc4F)cc3)n3c(N)nccc23)C1` (centres unmarked) [C228, 1-(3-(5-amino-3-(4-((3-fluoropyridin-2-yl)oxy)phenyl)imidazo[1,5-c]pyrimidin-1-yl)pyrrolidin-1-yl)but-2-yn-1-one], for which the IC50 at BTK is less than 100 nM.

`CC#CC(=O)N1CCC(c2nc(-c3ccc(Oc4ncccc4C#N)cc3)n3c(N)nccc23)C1` (centres unmarked) [C229, 2-(4-(5-amino-1-(1-(but-2-ynoyl)pyrrolidin-3-yl)imidazo[1,5-c]pyrimidin-3-yl)phenoxy)nicotinonitrile] yielded an IC50 on BTK of less than 100 nM.

On BTK, `CC#CC(=O)N1CCC(c2nc(-c3ccc(C(=O)Nc4ccccn4)c(F)c3)n3c(N)nccc23)C1` (centres unmarked) [C231, 4-(5-amino-1-(1-(but-2-ynoyl)pyrrolidin-3-yl)imidazo[1,5-c]pyrimidin-3-yl)-2-fluoro-N-(pyridin-2-yl)benzamide] came in with an IC50 of less than 100 nM.

At BTK, `C=CC(=O)N1CCCC(c2nc(-c3ccc(Oc4ncccc4F)c(OC)c3)n3c(N)nccc23)C1` (centres unmarked) [C232, 1-(3-(5-amino-3-(4-((3-fluoropyridin-2-yl)oxy)-3-methoxyphenyl)imidazo[1,5-c]pyrimidin-1-yl)piperidin-1-yl)prop-2-en-1-one] showed an IC50 of less than 100 nM.

`C=CC(=O)N1CCC(c2nc(-c3ccc(Oc4ncccc4F)c(OC)c3)n3c(N)nccc23)C1` (centres unmarked) [C233, 1-(3-(5-amino-3-(4-((3-fluoropyridin-2-yl)oxy)-3-methoxyphenyl)imidazo[1,5-c]pyrimidin-1-yl)pyrrolidin-1-yl)prop-2-en-1-one] showed an IC50 on BTK of less than 100 nM.

Take `C=CC(=O)N1CCCC(c2nc(-c3ccc(Oc4ncccc4C#N)c(F)c3)n3c(N)nccc23)C1` (centres unmarked) [C234, 2-(4-(1-(1-acryloylpiperidin-3-yl)-5-amino-imidazo[1,5-c]pyrimidin-3-yl)-2-fluorophenoxy)nicotinonitrile]: on BTK, the IC50 is less than 100 nM.

The compound `CC#CC(=O)N1CCC(c2nc(-c3ccc(C(=O)Nc4cc(C5CC5)ccn4)cc3)n3c(N)ncnc23)C1` (centres unmarked) [C237, 4-(4-amino-8-(1-(but-2-ynoyl)pyrrolidin-3-yl)imidazo[1,5-a][1,3,5]triazin-6-yl)-N-(4-cyclopropylpyridin-2-yl)benzamide] registered an IC50 against BTK of less than 100 nM.

`CC#CC(=O)N1CCC(c2nc(-c3ccc(C(=O)Nc4cc(C5CC5)ccn4)cc3)n3c(N)nccc23)C1` (centres unmarked) [C239, 4-(5-amino-1-(1-(but-2-ynoyl)pyrrolidin-3-yl)imidazo[1,5-c]pyrimidin-3-yl)-N-(4-cyclopropylpyridin-2-yl)benzamide]: the IC50 at BTK was less than 100 nM.

For the compound `CC#CC(=O)N1CCC(c2nc(-c3ccc(C(=O)Nc4cc(OC)ccn4)cc3)n3c(N)nccc23)C1` (centres unmarked) [C241, 4-(5-amino-1-(1-(but-2-ynoyl)pyrrolidin-3-yl)imidazo[1,5-c]pyrimidin-3-yl)-N-(4-methoxypyridin-2-yl)benzamide], at BTK, the IC50 is less than 100 nM.

Consider `C=CC(=O)N1CCC(c2nc(-c3ccc(C(=O)Nc4cc(C(F)(F)F)ccn4)cc3)n3c(N)nccc23)C1` (centres unmarked) [C242, 4-(1-(1-acryloylpyrrolidin-3-yl)-5-amino-imidazo[1,5-c]pyrimidin-3-yl)-N-(4-(trifluoromethyl)pyridin-2-yl)benzamide], for which, on BTK, the IC50 is less than 100 nM.

Take `C=CC(=O)N1CCCC(c2nc(-c3ccc(Oc4ccccn4)cc3)n3c(N)nccc23)C1` (centres unmarked) [C243, 1-(3-(5-amino-3-(4-(pyridin-2-yloxy)phenyl)imidazo[1,5-c]pyrimidin-1-yl)piperidin-1-yl)prop-2-en-1-one]: at BTK, the IC50 is less than 100 nM.

For the compound `CC#CC(=O)N1CCCC(c2nc(-c3ccc(Oc4ccccn4)cc3)n3c(N)nccc23)C1` (centres unmarked) [C244, 1-(3-(5-amino-3-(4-(pyridin-2-yloxy)phenyl)imidazo[1,5-c]pyrimidin-1-yl)piperidin-1-yl)but-2-yn-1-one], the concentration for half-maximal inhibition (IC50) on BTK is less than 100 nM.

As for `CC#CC(=O)N1CCC(c2nc(-c3ccc(C(=O)Nc4cc(C5CC5)ccn4)c(F)c3)n3c(N)nccc23)C1` (centres unmarked) [C247, 4-(5-amino-1-(1-(but-2-ynoyl)pyrrolidin-3-yl)imidazo[1,5-c]pyrimidin-3-yl)-N-(4-cyclopropylpyridin-2-yl)-2-fluorobenzamide], on BTK, the IC50 was less than 100 nM.

Values taken from US10544106B2, “Certain chemical entities, compositions, and methods” (NeuPharma, Inc., priority 2016, dated 2020).
